Laboratory results taken from US20120157532A1, “Method Of Treating Or Preventing A Convulsive Disorder In A Patient In Need Thereof” (priority 2009, published 2012).

Key:
[1] = patients, oral administration; cited from earlier work
[2] = system: Wistar rats Rj Wi IOPS Han; assay: Histology: retinal gliosis by GFAP immunolabelling; assay type: in vivo, rat; conditions: 65 days
Experimental: (§1) Animal treatments: As described previously (Duboc et al., 2004), Wistar rats Rj Wi IOPS Han were purchased from Janvier (Le Genest-St-lsle, France) at between six and seven weeks of age. VGB dissolved in 0.9% NaCl was administered at 40 mg (125 mg/ml, 0.32 ml) to rats by daily intraperitoneal injection for 65 days. These daily doses (rats: 200 mg/kg) are in-line with those described for the treatment of epilepsy in animals (Andre et al., 2001) or in humans (adult patients: […]; children: 50-75 mg/kg; or infants: 100-150 mg/kg) (Aicardi et al., 1996; Chiron et al., 1997; Lux et al., 2004). Light intensity in the animal cages ranged between 125 and 130 lux.
Histology: Eye cups were fixed overnight at 4° C. in 4 % (wt/vol) paraformaldehyde in phosphate buffered saline (PBS; 0.01 M, pH 7.4). The tissue was cryoprotected in successive solutions of PBS containing 10%, 20% and 30% sucrose at 4° C., oriented along the dorso-ventral axis and embedded in OCT (Labonord, Villeneuve d'Ascq, France). Retinal sections (8-10 μm thickness) were permeabilised for five minutes in PBS containing 0.1% Triton X-100 (Sigma, St. Louis, Mo.), rinsed, and incubated in PBS containing 1% bovine serum albumin (Eurobio, Les-Ulis, France), 0.1% Tween 20 (Sigma), and 0.1% sodium azide (Merck, Fontenay-Sous-Bois, France) for two hours at room temperature. The primary antibody added to the solution was incubated for two hours at room temperature. Polyclonal antibodies were directed against rabbit GFAP (1/400, Dako, USA). Sections were rinsed and then incubated with the secondary antibody, goat anti-rabbit IgG conjugated to Alexa TM488 (1:500, Molecular Probes, Eugene, Oreg.) for two hours. The dye, diamidiphenyl-indole (DAPI), was added during the final incubation period. […]
(§2) For quantification, vertical sections along the dorso-ventral axis were selected at the optic nerve. Following DAPI nuclear staining, the lengths of disorganised retinal areas were measured; GFAP immunostaining was used for detection and quantificationof retinal areas with reactive gliosis. […]

[3] = system: Wistar rats Rj Wi IOPS Han; assay: Photopic electroretinogram (ERG) in VGB-treated rats; assay type: in vivo, rat; conditions: for photopic ERG amplitude versus control group: p<0.001/p<0.01
Experimental: as §1
Electroretinogram (ERG): Photopic ERGs were recorded after the last VGB injection, as described previously (Duboc et al., 2004). Anesthesia was induced by intraperitoneal injection (0.8 to 1.2 ml/kg) of a solution containing ketamine (40 mg/ml) and xylazine (4 mg/ml Rompum). Animals were light-adapted for 10 minutes with a background light of 25 cdm^−2. Light flashes were then applied on this background light; the light intensity of the flash was 25 cdsm^−2. Ten recordings were averaged with an interstimulus interval of 30 s.
Statistical analysis: Statistical analysis of the results was performed by a one-way analysis of variance with the Student-Newman Keuls test (Sigmastat) for all measurements.

visual field = conditions: patients; cited from earlier work
GABA transaminase = GABA transaminase (Homo sapiens, UniProt P80404); conditions: cited from earlier work
[4] = system: Wistar rats Rj Wi IOPS Han; assay: Histology: lengths of disorganised retinal areas (DAPI nuclear staining); assay type: in vivo, rat; conditions: evening versus morning injection, 65 days; p<0.05
Experimental: as §1
Histology: Eye cups were fixed overnight at 4° C. in 4 % (wt/vol) paraformaldehyde in phosphate buffered saline (PBS; 0.01 M, pH 7.4). The tissue was cryoprotected in successive solutions of PBS containing 10%, 20% and 30% sucrose at 4° C., oriented along the dorso-ventral axis and embedded in OCT (Labonord, Villeneuve d'Ascq, France). […]
as §2

Chain of GABA transaminase (P80404 29-500, species assumed): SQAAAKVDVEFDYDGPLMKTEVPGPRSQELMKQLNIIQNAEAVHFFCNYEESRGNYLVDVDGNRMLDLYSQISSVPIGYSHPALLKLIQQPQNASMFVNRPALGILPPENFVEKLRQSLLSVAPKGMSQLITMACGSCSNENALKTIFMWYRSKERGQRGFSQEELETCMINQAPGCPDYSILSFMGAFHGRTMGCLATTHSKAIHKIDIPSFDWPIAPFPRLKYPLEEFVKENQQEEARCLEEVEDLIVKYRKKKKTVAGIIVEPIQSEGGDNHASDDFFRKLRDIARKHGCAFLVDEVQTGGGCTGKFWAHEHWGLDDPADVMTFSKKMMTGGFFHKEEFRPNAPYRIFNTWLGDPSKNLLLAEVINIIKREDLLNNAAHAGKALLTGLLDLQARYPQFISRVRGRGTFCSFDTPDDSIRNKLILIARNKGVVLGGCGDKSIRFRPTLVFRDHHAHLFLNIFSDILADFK

## C=CC(N)CCC(=O)O (centres unmarked) [VGB, 4-amino-5-hexenoic acid]
[1]
  time for plasma VGB concentration to decrease to half of the peak concentration: within six to eight hours
  time to peak plasma VGB concentration: within an hour
[2]; VGB AM: morning injection
  GFAP staining in the outer retina versus control animals: intense staining in the outer retina
[2]; VGB PM: evening injection
  GFAP staining in the outer retina versus control animals: intense staining in the outer retina
[2]; evening versus morning injection, p<0.05
  distribution of GFAP-positive areas, VGB PM versus VGB AM: less widely distributed
[3]; VGB AM: 40 mg daily i.p. for 65 days at the beginning of the light cycle
  photopic ERG amplitude versus control group: lower ERG amplitude
[3]; VGB PM: 40 mg daily i.p. for 65 days at the end of the light cycle
  photopic ERG amplitude versus control group: lower ERG amplitude
[3]; injected at the end versus the beginning of the light cycle, 65 days, p<0.005
  ERG amplitude decrease, VGB PM versus VGB AM: less important
Visual field
  effect on visual field: irreversible constriction of the visual field
GABA transaminase
  duration of irreversible inhibition of the GABA transaminase: lasts for few days
[4]
  disorganised retinal areas (outer nuclear layer), VGB PM versus VGB AM: smaller disorganised retinal areas
